# Data: US9447035B2, “Integrin antagonist conjugates for targeted delivery to cells expressing VLA-4” (Hoffmann-La Roche Inc., priority 2012, dated 2016)
# Tested on: AML MV4-11 cells
# Experiment: siRNA uptake in AML MV4-11 cells by imaging flow cytometry
# Type: cell-based
# Experimental: AML MV4-11 cells in growth medium (RPMI 1640 with 10% FBS) were incubated with Duplex-27 (500 nM) for 1 hour at 37° C. For determining VLA-4 independent binding, 140 (10 μM) was included in one condition to block VLA-4 dependent binding. After incubation, the cells were then washed twice with D-PBS and fixed in 1% paraformaldehyde for 10 minutes. The uptake of siRNA was analyzed by imaging flow cytometry using ImageStreamx (Aminis Corporation, Seattle).
smiles,measurement,setting,value
Cc1cccc(Cl)c1C(=O)N[C@@H](Cc1ccc(NC(=O)c2c(Cl)cccc2Cl)cc1)C(=O)O [Example 140],Mean Cy3 intensity,"140 alone at 10 μM, 1 hour at 37° C.",663
same,effect on the histograph shift of the VLA-4-targeted siRNA duplex,VLA-4 antagonist 140 present,this shift is oblated
